Source: US10126303B2, “Methods for identifying compounds as modulators of SLC38A9 interactions” (Whitehead Institute for Biomedical Research, priority 2014, dated 2018)
≈ marks a conversion by molar mass, not a printed value.

T1: SLC38A9.1 (Homo sapiens, UniProt Q8NBW4)
T1 construct: made in house; host or cells: HEK-293T cells stably expressing FLAG-SLC38A9.1
T1 sequence (Q8NBW4 1-561): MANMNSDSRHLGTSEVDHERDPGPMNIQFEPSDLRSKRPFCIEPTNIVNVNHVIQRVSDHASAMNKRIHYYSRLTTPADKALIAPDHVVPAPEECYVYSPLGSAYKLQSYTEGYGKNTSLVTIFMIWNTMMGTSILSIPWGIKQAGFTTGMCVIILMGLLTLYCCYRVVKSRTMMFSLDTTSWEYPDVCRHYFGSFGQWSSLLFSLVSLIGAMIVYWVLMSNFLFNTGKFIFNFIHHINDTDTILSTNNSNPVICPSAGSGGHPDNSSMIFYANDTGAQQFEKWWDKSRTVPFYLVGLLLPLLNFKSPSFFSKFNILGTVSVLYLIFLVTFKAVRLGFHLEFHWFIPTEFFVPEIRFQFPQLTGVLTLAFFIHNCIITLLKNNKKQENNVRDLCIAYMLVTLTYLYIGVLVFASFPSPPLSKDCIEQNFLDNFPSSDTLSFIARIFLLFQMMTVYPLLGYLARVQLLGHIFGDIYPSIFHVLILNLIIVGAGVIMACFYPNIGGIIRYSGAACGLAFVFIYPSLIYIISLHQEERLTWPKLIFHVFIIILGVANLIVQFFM


How the values were obtained:
mTORC1 = assay: Amino acid-induced activation of the mTORC1 pathway in SLC38A9-null HEK-293T cells (immunoblot); format: cell-based; details: CRISPR/CAS9 knockout, starved 50 min, stimulated 10 min, range of concentrations
Experimental: FIGS. 5A-SE depict the results of experiments arginine and related immunoblots depicting impairment of induced activation of the mTORC1 pathway. FIG. 5A depicts the time dependent uptake of [^3H]-arginine by proteoliposomes containing SCL38A9.1. FIG. SB, left panel, depicts the time course of [^3H]arginine uptake, given fixed [^3H]arginine (0.5 μM) and increasing concentrations of unlabeled arginine. FIG. 5B, right panel, depicts velocity, calculated from left panel, as a function of total arginine concentration. Data were fitted to the Michaelis-Menton equation. FIG. 5C depicts the time-dependent efflux of SLC38A9.1 proteoliposomes following 1.5 hr loading with 0.5 μM [^3H]arginine. FIG. 5D depicts the competition of 0.5 μM [^3H]arginine transport by SLC38A9.1 using 100 mM of indicated unlabeled amino acids. The error bars in FIGS. 5A-5D represent standard deviation derived from at least 3 measurements. […]
HEK-293T cells (750,000/well) were plated into 6 well dishes and transfected 16 hours later with 1 μg of pX459 expressing above guides using XtremeGene9. […] Clones were expanded and evaluated for knockout status by western analysis for SLC38A9. These clones were evaluated for amino acid response as described above.

SLC38A9.1 = target: T1, SLC38A9.1; assay: Competition of [3H]arginine transport by SLC38A9.1 proteoliposomes using unlabeled amino acids; format: biochemical; details: 0.5 μM [3H]arginine; 100 mM unlabeled amino acid; 75 min
Experimental: (§1) SLC38A9.1 proteoliposomes or liposome controls were centrifuged at 100,000 g for 30 min. in a TLA-100.3 rotor and resuspended in a smaller volume of outside buffer such that they could be added to a larger volume of 100 mM unlabeled amino acid (final concentration) supplemented with outside buffer components. […] At such high concentrations, it is important to adjust all amino acid solutions to pH 7.4. Assays were initiated by addition of 0.5 μM [^3H]arginine to the amino acid buffer solution followed by the addition of SLC38A9.1 proteoliposomes or liposome controls.
For steady-state kinetics experiments, time points were collected as described above and to assess substrate specificity, competition experiments were collected at 75 min. For efflux experiments, SLC38A9.1 proteoliposomes or liposome controls were loaded with [^3H]arginine as described above for an import assay for 1.5 hrs. To remove external amino acids, the reactions were applied to PD10 columns pre-equilibrated with outside buffer, and time points were collected as described above. Scintillation counts from liposome controls were subtracted from that of SLC38A9.1 proteoliposomes.

[1] = Solubility limit of amino acid in the transport assay solution; format: physicochemical
Experimental: as §1

[2] = substrate: N=C(N)NCCC[C@H](N)C(=O)O; assay: Steady-state kinetics of [3H]arginine uptake by SLC38A9.1 proteoliposomes; format: biochemical, human; details: other: [3H]arginine 0.5 μM plus increasing unlabeled arginine, 30° C.
Experimental: HEK-293T cells stably expressing FLAG-SLC38A9.1 were harvested as described above for immunoprecipitations, except cells were lysed in 40 mM HEPES pH 7.4, 0.5% Triton X-100, 1 mM DTT, and protease inhibitors. Following a 3 hr. immunoprecipitation, FLAG-affinity beads were washed twice for 5 min each in lysis buffer supplemented with 500 mM NaCl. Beads were equilibrated with inside buffer (20 mM MES pH 5, 90 mM KCl 10 mM NaCl) supplemented with 10% glycerol by washing them 5 times. FLAG-affinity purified SLC38A9.1 protein was eluted in glycerol-supplemented inside buffer containing 1 mg/mL FLAG peptide by rotation for 30 min. Protein was concentrated using Amicon centrifuge filters to about 1 mg/mL and snap-frozen in liquid nitrogen and stored at −80° C.
To form liposomes, chloroform-dissolved phosphatidylcholine (PC, 50 mg) was evaporated using dry nitrogen to yield a lipid film in a round bottom flask and desiccated overnight under vacuum. Lipids were hydrated in inside buffer at 50 mg/mL with light sonication in a water bath (Branson M2800H) and split into 100 μL aliquots in Eppendorf tubes. Aliquoted lipids were clarified using water bath sonication and recombined and extruded through a 100 nm membrane with 15 passes (Avanti 61000). […]

Molecule | activation of mTORC1 by the amino acid in SLC38A9 knockouts vs control cells (mTORC1) | competition of radiolabelled arginine transport (SLC38A9.1) | further results
N=C(N)NCCC[C@H](N)C(=O)O [arginine] | strongly repressed at all arginine concentrations | – | –
NCC(=O)O [glycine] | – | least effective competitor | –
N[C@@H](Cc1c[nH]cn1)C(=O)O [histidine] | – | competed radiolabelled arginine transport to similar degrees as arginine | –
CC(C)C[C@H](N)C(=O)O [leucine] | only blunted | modest effect | solubility [1]: ~130 mM (≈ 17.1 mg/mL)
NCCCC[C@H](N)C(=O)O [lysine] | – | competed radiolabelled arginine transport to similar degrees as arginine | –
SLC38A9.1 (Homo sapiens) (protein, made in house; host or cells: HEK-293T cells stably expressing FLAG-SLC38A9.1) MANMNSDSRHLGTSEVDHERDPGPMNIQFEPSDLRSKRPFCIEPTNIVNVNHVIQRVSDHASAMNKRIHYYSRLTTPADKALIAPDHVVPAPEECYVYSPLGSAYKLQSYTEGYGKNTSLVTIFMIWNTMMGTSILSIPWGIKQAGFTTGMCVIILMGLLTLYCCYRVVKSRTMMFSLDTTSWEYPDVCRHYFGSFGQWSSLLFSLVSLIGAMIVYWVLMSNFLFNTGKFIFNFIHHINDTDTILSTNNSNPVICPSAGSGGHPDNSSMIFYANDTGAQQFEKWWDKSRTVPFYLVGLLLPLLNFKSPSFFSKFNILGTVSVLYLIFLVTFKAVRLGFHLEFHWFIPTEFFVPEIRFQFPQLTGVLTLAFFIHNCIITLLKNNKKQENNVRDLCIAYMLVTLTYLYIGVLVFASFPSPPLSKDCIEQNFLDNFPSSDTLSFIARIFLLFQMMTVYPLLGYLARVQLLGHIFGDIYPSIFHVLILNLIIVGAGVIMACFYPNIGGIIRYSGAACGLAFVFIYPSLIYIISLHQEERLTWPKLIFHVFIIILGVANLIVQFFM | – | – | Km [2]: 39 mM; kcat [2]: 0.03 s⁻¹
